Experimental data reported in ChEMBL document CHEMBL4610126, “EEDi-5285: An Exceptionally Potent, Efficacious, and Orally Active Small-Molecule Inhibitor of Embryonic Ectoderm Development” (J Med Chem, 2020).

Columns and labels:
Polycomb protein EED = Polycomb protein EED (Homo sapiens, UniProt O75530)
[1] = Plasma concentration in mouse at 25 mg/kg, po after 3 hrs by LC-MS/MS analysis; assay type: ADME, organism-based
KARPAS-422 [2] = test: Growth inhibition of human KARPAS422 cells incubated for 7 days by WST8 assay; details: KARPAS-422, 168 h
Pfeiffer [3] = test: Growth inhibition of human Pfeiffer cells incubated for 7 days by WST8 assay; assay type: functional, cell-based; details: 168 h
[4] = Cmax in mouse at 10 mg/kg, po by LC-MS/MS analysis; assay type: ADME, organism-based; set-up: dose 10 mg/kg, route oral; details: in vivo
[5] = Toxicity in SCID mouse xenografted with human KARPAS422 cells assessed as induction of body weight loss at 50 to 100 mg/kg, po dosed daily for 28 days; assay type: organism-based, KARPAS-422; details: in vivo, 672 h
[6] = Plasma concentration in mouse at 25 mg/kg, po after 6 hrs by LC-MS/MS analysis; assay type: ADME, organism-based
[7] = Volume of distribution at steady state in mouse at 2 mg/kg, iv by LC-MS/MS analysis; assay type: ADME, organism-based; details: in vivo, read-out: Vdss
KARPAS-422 [8] = test: Antitumor activity against human KARPAS422 cells xenografted in SCID mouse assessed as induction of tumor regression at 50 mg/kg, po dosed daily for 28 days relative to control; assay type: functional
[9] = Plasma concentration in mouse at 25 mg/kg, po after 1 hr by LC-MS/MS analysis; assay type: ADME, organism-based
[10] = AUC (0 to t) in mouse at 10 mg/kg, po by LC-MS/MS analysis; assay type: ADME, organism-based; details: in vivo
[11] = Plasma clearance in mouse at 2 mg/kg, iv by LC-MS/MS analysis; assay type: ADME, organism-based
KARPAS-422 [12] = test: Antitumor activity against human KARPAS422 cells xenografted in SCID mouse assessed as induction of tumor regression at 100 mg/kg, po dosed daily for 28 days relative to control; assay type: functional
[13] = AUC (0 to t) in mouse at 2 mg/kg, iv by LC-MS/MS analysis; assay type: ADME, organism-based; details: in vivo
Pfeiffer [14] = test: Growth inhibition of human Pfeiffer cells incubated for 10 days by WST8 assay; assay type: functional, cell-based; details: 240 h
KARPAS-422 [15] = test: Antitumor activity against human KARPAS422 cells xenografted in mouse assessed as inhibition of tumor growth at 100 mg/kg, po dosed twice daily for 36 days; assay type: functional; details: KARPAS-422, po, 864 h, read-out: TGI
[16] = Terminal half life in mouse at 10 mg/kg, po by LC-MS/MS analysis; assay type: ADME, organism-based; details: in vivo, read-out: beta t1/2 (converted)

Polycomb protein EED, sequence (O75530 whole entry): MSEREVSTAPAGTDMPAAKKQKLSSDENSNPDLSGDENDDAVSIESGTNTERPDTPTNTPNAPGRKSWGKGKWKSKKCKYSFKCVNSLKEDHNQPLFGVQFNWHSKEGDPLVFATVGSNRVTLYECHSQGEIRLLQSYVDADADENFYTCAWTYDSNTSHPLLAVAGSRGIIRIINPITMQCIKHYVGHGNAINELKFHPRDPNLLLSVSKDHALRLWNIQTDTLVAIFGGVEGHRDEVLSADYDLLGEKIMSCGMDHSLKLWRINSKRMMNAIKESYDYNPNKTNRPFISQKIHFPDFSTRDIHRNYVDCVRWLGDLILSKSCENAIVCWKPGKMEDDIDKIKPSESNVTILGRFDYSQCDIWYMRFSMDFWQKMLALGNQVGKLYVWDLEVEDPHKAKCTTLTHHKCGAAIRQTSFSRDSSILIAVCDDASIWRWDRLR

Compound	IC50 (Polycomb protein EED) [nM]	concentration at 3 h [1] [ng/mL]	IC50 (KARPAS-422 [2]) [nM]	IC50 (Pfeiffer [3]) [nM]	concentration at 6 h [6] [ng/mL]	concentration at 1 h [9] [ng/mL]	also measured
CS(=O)(=O)c1ncn2c(NCc3c(F)ccc4c3CCO4)ncc(-c3ccc(C4CC4)nc3)c12	0.2	608	0.5	0.02	452	1100	Cmax [4]: 1800 ng/mL; Activity [5]: Non-Toxic; Vd [7]: 1.4 L/kg; Activity (KARPAS-422 [8]): 100%; AUC(0-t) [10]: 6000 ng·h/mL; clearance [11]: 20 mL/min/kg; Activity (KARPAS-422 [12]): 100%; AUC(0-t) [13]: 1700 ng·h/mL
CCOC(=O)c1ncn2c(NCc3ccco3)ncc(-c3ccccc3)c12	–	–	1000	–	–	–	–
CCOC(=O)c1ncn2c(NCc3c(F)cccc3OC)ncc(-c3ccccc3)c12	50	–	300	–	–	–	–
CS(=O)(=O)c1ccc(-c2cnc(NCc3c(F)ccc4c3CCO4)n3cnc(S(C)(=O)=O)c23)cc1	–	171	1.4	0.02	109	598	–
Cc1ncccc1-c1cnc(NCc2c(F)ccc3c2CCO3)n2cnc(S(C)(=O)=O)c12	–	194	3.6	0.08	91	488	–
CN(C)[C@H]1CN(C2CCc3cccc(F)c32)C[C@@H]1c1ccc(N2CCN(S(C)(=O)=O)CC2)cc1 (some centres undefined)	–	–	–	–	–	–	IC50 (Pfeiffer [14]): 69 nM
CS(=O)(=O)c1ncn2c(NCc3c(F)ccc4c3CCO4)ncc(-c3ccc(C(F)F)nc3)c12	0.2	18	2.4	0.02	< 10	242	–
CP(C)(=O)c1ncn2c(NCc3c(F)ccc4c3CCO4)ncc(-c3ccccc3)c12	–	–	8.1	–	–	–	–
CCOC(=O)c1ncn2c(NCc3cc(OC)ccc3F)ncc(-c3ccccc3)c12	–	–	2700	–	–	–	–
Cc1nc(C(F)(F)F)ccc1-c1cnc(NCc2c(F)ccc3c2CCO3)n2cnc(S(C)(=O)=O)c12	0.4	794	1.7	0.05	415	896	–
CS(=O)(=O)c1ncn2c(NCc3c(F)ccc4c3CCO4)ncc(-c3ccc(F)cc3)c12	0.4	< 10	5.2	0.12	< 10	43	–
CCOC(=O)c1ncn2c(NCc3cccc4c3CCO4)ncc(-c3ccccc3)c12	–	–	210	–	–	–	–
CCOC(=O)c1ncn2c(NCc3cccc4c3OCC4)ncc(-c3ccccc3)c12	–	–	6300	–	–	–	–
CNC(=O)c1ncn2c(NCc3ccco3)ncc(-c3ccccc3)c12	–	–	2400	–	–	–	–
CCOC(=O)c1ncn2c(NCc3cccc4c3OCO4)ncc(-c3ccccc3)c12	40	–	300	–	–	–	–
CC(=O)N1CCC(c2cnc(NCc3c(F)ccc4c3CCO4)n3cnc(S(C)(=O)=O)c23)CC1	2.8	–	6.5	–	–	–	–
Fc1ccc2c(c1CNc1ncc(-c3ccccc3)c3c(C(F)(F)F)ncn13)CCO2	–	–	120	–	–	–	–

Compound	IC50 (Polycomb protein EED) [nM]	concentration at 3 h [1] [ng/mL]	IC50 (KARPAS-422 [2]) [nM]	IC50 (Pfeiffer [3]) [nM]	concentration at 6 h [6] [ng/mL]	concentration at 1 h [9] [ng/mL]	also measured
CS(=O)(=O)c1ncn2c(NCc3c(F)ccc4c3CCO4)ncc(-c3ccc(C(F)(F)F)nc3)c12	0.3	189	1.7	0.03	139	468	–
CS(=O)(=O)c1ncn2c(NCc3c(F)ccc4c3CCO4)ncc(-c3ccccc3)c12	–	–	2.2	–	–	–	–
CNC(=O)c1ncn2c(NCc3c(F)ccc4c3CCO4)ncc(-c3ccccc3)c12	–	–	60	–	–	–	–
CS(=O)(=O)c1ncn2c(NCc3c(F)ccc4c3CCO4)ncc(C3CCN(S(C)(=O)=O)CC3)c12	7.9	–	15.3	–	–	–	–
CS(=O)(=O)c1ncn2c(NCc3c(F)ccc4c3CCO4)ncc(C3CCN(S(=O)(=O)C4CC4)CC3)c12	3.1	–	8.2	–	–	–	–
CCOC(=O)c1ncn2c(NCc3ccc(OC)cc3F)ncc(-c3ccccc3)c12	–	–	4300	–	–	–	–
CS(=O)(=O)c1ncn2c(NCc3c(F)ccc4c3CCO4)ncc(C3CCOCC3)c12	12	–	52	–	–	–	–
CS(=O)(=O)c1ccc(-c2cnc(NCc3c(F)ccc4c3CCO4)n3cnc(S(C)(=O)=O)c23)cn1	–	36	2.9	0.5	41	351	–
Cc1ccc(-c2cnc(NCc3c(F)ccc4c3CCO4)n3cnc(S(C)(=O)=O)c23)cn1	–	94	1.4	0.03	29	340	–
CCOC(=O)c1ncn2c(NCc3ccccc3)ncc(-c3ccccc3)c12	–	–	3000	–	–	–	–
Cc1cc(S(C)(=O)=O)ccc1-c1cnc(NCc2c(F)ccc3c2CCO3)n2cnc(S(C)(=O)=O)c12	0.9	279	1.6	0.02	98	591	–
CCN1CCC(c2cnc(NCc3c(F)ccc4c3CCO4)n3cnc(S(C)(=O)=O)c23)CC1	23	–	126	–	–	–	–
CS(=O)(=O)c1ccc(-c2cnc(NCc3ccco3)n3cnnc23)cc1	17.6	–	180	–	–	–	inhibition in vivo at 100 mg/kg (KARPAS-422 [15]): 85%
Cn1cc(-c2cnc(NCc3c(F)ccc4c3CCO4)n3cnc(S(C)(=O)=O)c23)cn1	0.5	50	3.1	0.27	56	468	–
Cc1ccc(-c2cnc(NCc3c(F)ccc4c3CCO4)n3cnc(S(C)(=O)=O)c23)c(C)n1	0.5	754	–	–	485	2480	Cmax [4]: 1300 ng/mL; Activity [5]: Non-Toxic; Vd [7]: 1.6 L/kg; Activity (KARPAS-422 [8]): 100%; half-life [16]: 126 min; AUC(0-t) [10]: 2600 ng·h/mL; clearance [11]: 40 mL/min/kg; Activity (KARPAS-422 [12]): 100%; AUC(0-t) [13]: 800 ng·h/mL
CS(=O)(=O)c1ncn2c(NCc3c(F)ccc4c3CCO4)ncc(C3CCS(=O)(=O)CC3)c12	7.8	–	29	–	–	–	–
